Read-outs that look alike come from different tables or passages of the source.
Legend:
Pfeiffer cell line = test: Anti-proliferative activity, Pfeiffer cell line, 7 day treatment; format: cell-based; details: Homo sapiens, 168 h
Procedure: (§1) “N/A” stands for “not assessed”.
(§2) To assess the effect of PRC2 inhibition on cell growth, cells were seeded in 96-well cell culture plates at a density of 2 000-3 000 cells/well in 200 µL of culture medium, and treated with serially diluted compounds for 7 days at 37° C. in an atmosphere of 5% CO2. Cell growth was evaluated by a […] WST-8 assay (Dojindo Molecular Technologies) using a Tecan Infinite M1000 multimode microplate reader (Tecan, Morrisville, NC). The WST-8 reagent was added to the plate, incubated for 1-4 h, and read at 450 nm. The readings were normalized to the DMSO-treated cells, and the IC50 was calculated by nonlinear regression analysis using GraphPad Prism 6 software

[1] = test system: KARPAS422 human B cell lymphoma cell; test: Cell proliferation, KARPAS422, 7 day treatment (WST-8); format: cell-based; details: Homo sapiens, KARPAS-422, 168 h
Procedure: as §1
Analysis of Cell Proliferation:
as §2

[2] = anti-proliferative IC50, Pfeiffer cell line, 7 day treatment, read-out: Pfeiffer Cell line
[3] = anti-proliferative IC50, Karpas 422 cell line, 7 day treatment, read-out: Karpas Cell line
[4] = anti-proliferative IC50 class, Pfeiffer cell line, 7 day treatment, read-out: Pfeiffer Cell line
[5] = anti-proliferative IC50 class, Karpas 422 cell line, 7 day treatment, read-out: Karpas Cell line

IC50 (Pfeiffer cell line; [2])	IC50 [1, 3]	IC50 (Pfeiffer cell line; [4])	IC50 [1, 5]	Structure (SMILES)	other results
> 100 nM	> 100 nM	–	–	Fc1ccc2c(c1CNc1ncc3c4c(ncn14)COCc1ncccc1-3)CCO2 [Cpd. No. 2, N-((5-fluoro-2,3-dihydrobenzofuran-4-yl)methyl)-3H,5H-4-oxa-2,6,11,12a-tetraazabenzo[4,5]cycloocta[1,2,3-cd]inden-12-amine]	–
84 nM	–	–	–	O=C1Nc2ccccc2-c2cnc(NCc3c(F)ccc4c3CCO4)n3cnc1c23 [Cpd. No. 3, 11-(((5-fluoro-2,3-dihydrobenzofuran-4-yl)methyl)amino)-2,4,10,11a-tetraazadibenzo[cd,f]azulen-3(4H)-one]	–
0.65 nM	3.84 nM	–	–	O=C1OCc2ncccc2-c2cnc(NCc3c(F)ccc4c3CCO4)n3cnc1c23 [Cpd. No. 12, 12-(((5-fluoro-2,3-dihydrobenzofuran-4-yl)methyl)amino)-3H,5H-4-oxa-2,6,11,12a-tetraazabenzo[4,5]cycloocta[1,2,3-cd]inden-3-one]	–
3.39 nM	14.7 nM	–	–	O=C1NCc2ncccc2-c2cnc(NCc3c(F)ccc4c3CCO4)n3cnc1c23 [Cpd. No. 16, 12-(((5-fluoro-2,3-dihydrobenzofuran-4-yl)methyl)amino)-4,5-dihydro-3H-2,4,6,11,12a-pentaazabenzo[4,5]cycloocta[1,2,3-cd]inden-3-one]	–
1.04 nM	5.66 nM	–	–	O=C1c2ncn3c(NCc4c(F)ccc5c4CCO5)ncc(c23)-c2cnc(C(F)(F)F)cc2CN1C1CC1 [Cpd. No. 36, 4-cyclopropyl-12-(((5-fluoro-2,3-dihydrobenzofuran-4-yl)methyl)amino)-7-(trifluoromethyl)-4,5-dihydro-3H-2,4,8,11,12a-pentaazabenzo[4,5]cycloocta[1,2,3-cd]inden-3-one]	–
0.023 nM	0.89 nM	–	–	Cc1ccc2c(n1)CS(=O)(=O)c1ncn3c(NCc4c(F)ccc5c4CCO5)ncc-2c13 [Cpd. No. 95, 11-(((5-fluoro-2,3-dihydrobenzofuran-4-yl)methyl)amino)-6-methyl-4H-3-thia-2,5,10,11a-tetraazadibenzo[cd,f]azulene 3,3-dioxide]	–
–	–	–	–	CS(=O)(=O)c1ncn2c(NCc3c(F)ccc4c3CCO4)ncc(-c3ccccc3)c12 [Cpd. No. 99, N-((5-fluoro-2,3-dihydrobenzofuran-4-yl)methyl)-1-(methylsulfonyl)-8-phenylimidazo[1,5-c]pyrimidin-5-amine]	IC50 (Pfeiffer cell line; Pfeiffer, read-out: Pfeiffer Cell line (nM)): 0.19 nM; IC50 ([1]; read-out: Karpas Cell line (nM)): 0.88 nM
–	–	< 10 nM	< 10 nM	Cc1ccc2c(n1)CN(C(C)C)C(=O)c1ncn3c(NCc4c(F)ccc5c4CCO5)ncc-2c13 [E 1, 12-(((5-fluoro-2,3-dihydrobenzofuran-4-yl)methyl)amino)-4-isopropyl-7-methyl-4,5-dihydro-3H-2,4,6,11,12a-pentaazabenzo[4,5]cycloocta[1,2,3-cd]inden-3-one]	–
–	–	< 10 nM	< 10 nM	Cc1cc2c(cn1)-c1cnc(NCc3c(F)ccc4c3CCO4)n3cnc(c13)C(=O)N(C(C)C)C2 [E 2, 12-(((5-fluoro-2,3-dihydrobenzofuran-4-yl)methyl)amino)-4-isopropyl-7-methyl-4,5-dihydro-3H-2,4,8,11,12a-pentaazabenzo[4,5]cycloocta[1,2,3-cd]inden-3-one]	–
–	–	< 10 nM	< 10 nM	CC(C)N1Cc2cc(C#N)ccc2-c2cnc(NCc3c(F)ccc4c3CCO4)n3cnc(c23)C1=O [E 4, 12-(((5-fluoro-2,3-dihydrobenzofuran-4-yl)methyl)amino)-4-isopropyl-3-oxo-4,5-dihydro-3H-2,4,11,12a-tetraazabenzo[4,5]cycloocta[1,2,3-cd]indene-7-carbonitrile]	–
–	–	< 10 nM	< 10 nM	O=C1c2ncn3c(NCc4c(F)ccc5c4CCO5)ncc(c23)-c2cnc(C(F)(F)F)cc2CN1C1CCC1 [E 5, 4-cyclobutyl-12-(((5-fluoro-2,3-dihydrobenzofuran-4-yl)methyl)amino)-7-(trifluoromethyl)-4,5-dihydro-3H-2,4,8,11,12a-pentaazabenzo[4,5]cycloocta[1,2,3-cd]inden-3-one]	–
–	–	< 10 nM	< 10 nM	Cc1ccc2c(n1)CN(CC(F)F)C(=O)c1ncn3c(NCc4c(F)ccc5c4CCO5)ncc-2c13 [E 6, 4-(2,2-difluoroethyl)-12-(((5-fluoro-2,3-dihydrobenzofuran-4-yl)methyl)amino)-7-methyl-4,5-dihydro-3H-2,4,6,11,12a-pentaazabenzo[4,5]cycloocta[1,2,3-cd]inden-3-one]	–
–	–	< 10 nM	< 10 nM	O=C1c2ncn3c(NCc4c(F)ccc5c4CCO5)ncc(c23)-c2ccc(C(F)(F)F)nc2CN1CC(F)F [E 8, 4-(2,2-difluoroethyl)-12-(((5-fluoro-2,3-dihydrobenzofuran-4-yl)methyl)amino)-7-(trifluoromethyl)-4,5-dihydro-3H-2,4,6,11,12a-pentaazabenzo[4,5]cycloocta[1,2,3-cd]inden-3-one]	–
–	–	< 10 nM	< 10 nM	Cc1cc2c(cn1)-c1cnc(NCc3c(F)ccc4c3CCO4)n3cnc(c13)C(=O)N(CC(F)F)C2 [E 9, 4-(2,2-difluoroethyl)-12-(((5-fluoro-2,3-dihydrobenzofuran-4-yl)methyl)amino)-7-methyl-4,5-dihydro-3H-2,4,8,11,12a-pentaazabenzo[4,5]cycloocta[1,2,3-cd]inden-3-one]	–
–	–	10 to 100 nM	10 to 100 nM	Cc1cnc2n1Cc1cc(C(F)(F)F)ncc1-c1cnc(NCc3c(F)ccc4c3CCO4)n3cnc-2c13 [E 10, N-((5-fluoro-2,3-dihydrobenzofuran-4-yl)methyl)-5-methyl-8-(trifluoromethyl)-6H-2,3,5a,9,12,13a-hexaazabenzo[4,5]cyclopenta[7,8]cycloocta[1,2,3-cd]inden-13-amine]	–
–	–	< 10 nM	< 10 nM	CC(C)N1Cc2cc(C(F)F)ncc2-c2cnc(NCc3c(F)ccc4c3CCO4)n3cnc(c23)C1=O [E 11, 7-(difluoromethyl)-12-(((5-fluoro-2,3-dihydrobenzofuran-4-yl)methyl)amino)-4-isopropyl-4,5-dihydro-3H-2,4,8,11,12a-pentaazabenzo[4,5]cycloocta[1,2,3-cd]inden-3-one]	–
–	–	< 10 nM	< 10 nM	CCc1ccc2c(n1)CN(CC(F)(F)F)C(=O)c1ncn3c(NCc4c(F)ccc5c4CCO5)ncc-2c13 [E 12, 7-ethyl-12-(((5-fluoro-2,3-dihydrobenzofuran-4-yl)methyl)amino)-4-(2,2,2-trifluoroethyl)-4,5-dihydro-3H-2,4,6,11,12a-pentaazabenzo[4,5]cycloocta[1,2,3-cd]inden-3-one]	–
–	–	< 10 nM	< 10 nM	CCc1ccc2c(n1)CN(CC(F)F)C(=O)c1ncn3c(NCc4c(F)ccc5c4CCO5)ncc-2c13 [E 13, 4-(2,2-difluoroethyl)-7-ethyl-12-(((5-fluoro-2,3-dihydrobenzofuran-4-yl)methyl)amino)-4,5-dihydro-3H-2,4,6,11,12a-pentaazabenzo[4,5]cycloocta[1,2,3-cd]inden-3-one]	–
–	> 100 nM	–	–	CNC(=O)c1ncn2c(NCc3cccc4c3OCO4)ncc(-c3ccccc3)c12 [compound 141, 5-((benzo[d][1,3]dioxol-4-ylmethyl)amino)-N-methyl-8-phenylimidazo[1,5-c]pyrimidine-1-carboxamide]	–
–	> 100 nM	–	–	CNC(=O)c1ncn2c(NCc3c(F)ccc4c3CCO4)ncc(-c3ccccc3)c12 [compound 142, 5-(((5-fluoro-2,3-dihydrobenzofuran-4-yl)methyl)amino)-N-methyl-8-phenylimidazo[1,5-c]pyrimidine-1-carboxamide]	–
